Results from patent publication US7723524B2, “8-cyanoquinolonecarboxylic acid derivative” (Daiichi Pharmaceutical Co., Ltd., priority 2003, dated 2010).
Converted amounts (≈) assume the structure as drawn. Where a name gives a salt, the structure may show the parent alone. Read-outs that look alike come from different tables or passages of the source.

Experiments:
S. aureus FDA 209P = experiment: Antibacterial activity (MIC), standard method of the Japanese Society of Chemotherapy; format: cell-based; conditions: Staphylococcus aureus, FDA209P
Method: (§1) Antibacterial activity of the compounds of the present invention was measured in accordance with the standard method designated by the Japanese Society of Chemotherapy. The results are shown in MIC values (μg/mL) (Table 1). For comparison with the MIC values of the compounds of the present invention, MIC values of levofloxacin (LVFX), ciprofloxacin (CPFX), and 7-[3-(R)-(1-aminocyclopropyl)pyrrolidin-1-yl]-8-cyano-1-[2-(S)-fluoro-1-(R)-cyclopropyl]-1,4-dihydro-4-oxoquinoline-3-carboxylic acid (control drug 1: represented by the following formula), which is described in International Publication WO 02/40478 pamphlet, are also shown in the table.

S. marcescens 10100 = experiment: as above; format: cell-based; conditions: Serratia marcescens
Method: as §1

E. coli NIHJ = experiment: as above; format: cell-based; conditions: Escherichia coli
Method: as §1

S. epidermidis 56500 = experiment: as above; format: cell-based; conditions: Staphylococcus epidermidis
Method: as §1

P. aeruginosa 32121 = experiment: as above; format: cell-based; conditions: Pseudomonas aeruginosa
Method: as §1

P. aeruginosa 32104 = experiment: as above; format: cell-based; conditions: Pseudomonas aeruginosa
Method: as §1

S. maltophilia IID 1275 = experiment: as above; format: cell-based; conditions: Stenotrophomonas maltophilia, IID1275
Method: as §1

P. Vulgaris 08601 = experiment: as above; format: cell-based; conditions: Proteus vulgaris
Method: as §1

E. faevcalis ATCC 19433 = experiment: as above; format: cell-based
Method: as §1

K. pneumoniae TYPE I = experiment: as above; format: cell-based; conditions: Klebsiella pneumoniae
Method: as §1

S. aureus 870307 = experiment: as above; format: cell-based; conditions: Staphylococcus aureus
Method: as §1

S. flexneri 2A 5503 = experiment: as above; format: cell-based; conditions: Shigella flexneri, 2A5503
Method: as §1

S. pyogenes G-36 = experiment: as above; format: cell-based; conditions: Streptococcus pyogenes, G36
Method: as §1

S. pneumoniae J24 = experiment: as above; format: cell-based; conditions: Streptococcus pneumoniae
Method: as §1

[1] = system: mouse bone marrow polychromatic erythrocytes; experiment: Mouse bone marrow micronucleus test; format: in vivo; conditions: male Slc:ddY mice, 24 hours after administration
Method: By use of compound Nos. 1 and 2, a mouse bone marrow micronucleus test was performed through the following method.
Groups of mice, each consisting of five, six-week-old, male Slc:ddY mice, were used. Compound Nos. 1 and 2 were dissolved in and diluted with 0.1 mol/L NaOH/saline. The medium; i.e., 0.1 mol/L NaOH/saline, was used as a control, and a drug solution which had been prepared by dissolving and diluting cyclophosphamide in saline was used as a positive control drug. All the drug solutions were disinfected through filtration by use of a Mylex GS 0.22 μm filter. Each drug solution was intravenously administered with a regimen of 10 mL/kg single dose at a rate of 0.2 mL/min (100 and 150 mg/kg). Twenty four hours after administration, […] were collected from the femur bone, the smear preparations were prepared, and these were stained with […].

[2] = S. aureus FDA 209P, read-out: MIC
[3] = S. marcescens 10100, read-out: MIC
[4] = S. epidermidis 56500, read-out: MIC
[5] = P. aeruginosa 32121, read-out: MIC
[6] = P. aeruginosa 32104, read-out: MIC
[7] = S. maltophilia IID 1275, read-out: MIC
[8] = P. Vulgaris 08601, read-out: MIC
[9] = E. faevcalis ATCC 19433, read-out: MIC
[10] = K. pneumoniae TYPE I, read-out: MIC
[11] = S. aureus 870307, read-out: MIC
[12] = S. pyogenes G-36, read-out: MIC
[13] = S. pneumoniae J24, read-out: MIC

| Compound | MIC (S. aureus FDA 209P; [2]) | MIC (S. marcescens 10100; [3]) | MIC (E. coli NIHJ; E. coli NIHJ, read-out: MIC) | MIC (S. epidermidis 56500; [4]) | MIC (P. aeruginosa 32121; [5]) | MIC (P. aeruginosa 32104; [6]) | MIC (S. maltophilia IID 1275; [7]) | MIC (P. Vulgaris 08601; [8]) | MIC (E. faevcalis ATCC 19433; [9]) | MIC (K. pneumoniae TYPE I; [10]) | MIC (S. aureus 870307; [11]) | MIC (S. flexneri 2A 5503) | MIC (S. pyogenes G-36; [12]) | MIC (S. pneumoniae J24; [13]) | further results |
| --- | --- | --- | --- | --- | --- | --- | --- | --- | --- | --- | --- | --- | --- | --- | --- |
| N#Cc1c(N2CC[C@@H](C3(N)CC3)C2)c(F)cc2c(=O)c(C(=O)O)cn([C@@H]3C[C@@H]3F)c12 (hydrate or solvate) [Compound No. 1, 7-[3-(R)-(1-Aminocyclopropyl)pyrrolidin-1-yl]-8-cyano-6-fluoro-1-[2-(S)-fluoro-1-(R)-cyclopropyl]-1,4-dihydro-4-oxoquinoline-3-carboxylate] |  |  |  |  |  |  |  |  |  |  |  |  |  |  | melting point: 138 to 140 °C |
| N#Cc1c(N2CC[C@@H](C3(N)CC3)C2)ccc2c(=O)c(C(=O)O)cn([C@@H]3C[C@@H]3F)c12 [Control drug 1, 7-[3-(R)-(1-aminocyclopropyl)pyrrolidin-1-yl]-8-cyano-1-[2-(S)-fluoro-1-(R)-cyclopropyl]-1,4-dihydro-4-oxoquinoline-3-carboxylic acid, reference compound] | 0.006 µg/mL (≈ 0.0151 µM) | 0.1 µg/mL (≈ 0.252 µM) | 0.012 µg/mL (≈ 0.0303 µM) | 0.05 µg/mL (≈ 0.126 µM) | 0.1 µg/mL (≈ 0.252 µM) | 0.2 µg/mL (≈ 0.505 µM) | 0.78 µg/mL (≈ 1.97 µM) | 0.025 µg/mL (≈ 0.0631 µM) | 0.1 µg/mL (≈ 0.252 µM) | 0.1 µg/mL (≈ 0.252 µM) | 0.39 µg/mL (≈ 0.984 µM) | 0.012 µg/mL (≈ 0.0303 µM) | 0.025 µg/mL (≈ 0.0631 µM) | 0.025 µg/mL (≈ 0.0631 µM) |  |
| C[C@H]1COc2c(N3CCN(C)CC3)c(F)cc3c(=O)c(C(=O)O)cn1c23 [LVFX, levofloxacin, reference compound] | 0.2 µg/mL (≈ 0.553 µM) | 0.1 µg/mL (≈ 0.277 µM) | 0.012 µg/mL (≈ 0.0332 µM) | 0.39 µg/mL (≈ 1.08 µM) | 0.1 µg/mL (≈ 0.277 µM) | 0.2 µg/mL (≈ 0.553 µM) | 0.39 µg/mL (≈ 1.08 µM) | 0.012 µg/mL (≈ 0.0332 µM) | 0.78 µg/mL (≈ 2.16 µM) | 0.1 µg/mL (≈ 0.277 µM) | > 6.25 µg/mL | 0.025 µg/mL (≈ 0.0692 µM) | 0.78 µg/mL (≈ 2.16 µM) | 0.78 µg/mL (≈ 2.16 µM) |  |
| O=C(O)c1cn(C2CC2)c2cc(N3CCNCC3)c(F)cc2c1=O [CPFX, ciprofloxacin, reference compound] | 0.1 µg/mL (≈ 0.302 µM) | 0.025 µg/mL (≈ 0.0754 µM) | ≤ 0.003 µg/mL | 0.2 µg/mL (≈ 0.604 µM) | 0.025 µg/mL (≈ 0.0754 µM) | 0.05 µg/mL (≈ 0.151 µM) | 0.78 µg/mL (≈ 2.35 µM) | ≤ 0.003 µg/mL | 0.78 µg/mL (≈ 2.35 µM) | 0.025 µg/mL (≈ 0.0754 µM) | > 6.25 µg/mL | 0.006 µg/mL (≈ 0.0181 µM) | 1.56 µg/mL (≈ 4.71 µM) | 0.39 µg/mL (≈ 1.18 µM) |  |
| N#Cc1c(N2CC[C@@H](C3(N)CC3)C2)c(F)cc2c(=O)c(C(=O)O)cn(C3CC3)c12 (as salt: trifluoroacetate) (hydrate or solvate) [Compound No. 2, 7-[3-(R)-(1-Aminocyclopropyl)pyrrolidin-1-yl]-8-cyano-1-cyclopropyl-6-fluoro-1,4-dihydro-4-oxoquinoline-3-carboxylate] |  |  |  |  |  |  |  |  |  |  |  |  |  |  | melting point: 148 to 152 °C |
| CNC1([C@@H]2CCN(c3c(F)cc4c(=O)c(C(=O)O)cn([C@@H]5C[C@@H]5F)c4c3C#N)C2)CC1 [No. 3] |  |  |  |  |  |  |  |  |  |  |  | ≤ 0.003 µg/mL |  |  | MIC (S. aureus FDA 209P): 0.006 µg/mL (≈ 0.014 µM); MIC (S. marcescens 10100; 10100): 0.05 µg/mL (≈ 0.117 µM); MIC (E. coli NIHJ): ≤ 0.003 µg/mL; MIC (S. epidermidis 56500; 56500): 0.012 µg/mL (≈ 0.028 µM); MIC (P. aeruginosa 32121; 32121): 0.05 µg/mL (≈ 0.117 µM); MIC (P. aeruginosa 32104; 32104): 0.1 µg/mL (≈ 0.233 µM); MIC (S. maltophilia IID 1275): 0.1 µg/mL (≈ 0.233 µM); MIC (P. Vulgaris 08601): 0.012 µg/mL (≈ 0.028 µM); MIC (E. faevcalis ATCC 19433): 0.05 µg/mL (≈ 0.117 µM); MIC (K. pneumoniae TYPE I): 0.025 µg/mL (≈ 0.0584 µM); MIC (S. aureus 870307; 870307): 0.025 µg/mL (≈ 0.0584 µM); MIC (S. pyogenes G-36): 0.006 µg/mL (≈ 0.014 µM); MIC (S. pneumoniae J24; J24): 0.006 µg/mL (≈ 0.014 µM) |
| N#Cc1c(N2CC[C@@H](C3(N)CC3)C2)c(F)cc2c(=O)c(C(=O)O)cn(C3CC3)c12 [No. 2] | ≤ 0.003 µg/mL | 0.025 µg/mL (≈ 0.0631 µM) | ≤ 0.003 µg/mL | 0.012 µg/mL (≈ 0.0303 µM) | 0.05 µg/mL (≈ 0.126 µM) | 0.1 µg/mL (≈ 0.252 µM) | 0.1 µg/mL (≈ 0.252 µM) | 0.006 µg/mL (≈ 0.0151 µM) | 0.025 µg/mL (≈ 0.0631 µM) | 0.012 µg/mL (≈ 0.0303 µM) | 0.05 µg/mL (≈ 0.126 µM) | ≤ 0.003 µg/mL | 0.006 µg/mL (≈ 0.0151 µM) | 0.006 µg/mL (≈ 0.0151 µM) |  |
| N#Cc1c(N2CC[C@@H](C3(N)CC3)C2)c(F)cc2c(=O)c(C(=O)O)cn([C@@H]3C[C@@H]3F)c12 [No. 1] | ≤ 0.003 µg/mL | 0.025 µg/mL (≈ 0.0603 µM) | ≤ 0.003 µg/mL | 0.006 µg/mL (≈ 0.0145 µM) | 0.05 µg/mL (≈ 0.121 µM) | 0.1 µg/mL (≈ 0.241 µM) | 0.2 µg/mL (≈ 0.483 µM) | 0.006 µg/mL (≈ 0.0145 µM) | 0.025 µg/mL (≈ 0.0603 µM) | 0.025 µg/mL (≈ 0.0603 µM) | 0.05 µg/mL (≈ 0.121 µM) | ≤ 0.003 µg/mL | 0.006 µg/mL (≈ 0.0145 µM) | 0.006 µg/mL (≈ 0.0145 µM) | difference in the micronucleus induction rate between the control and the administration group ([1]; 150 mg/kg intravenous single dose): no significant difference; micronucleus test judgment result ([1]; intravenous single dose, up to 150 mg/kg): negative |
| CCNC1([C@@H]2CCN(c3c(F)cc4c(=O)c(C(=O)O)cn([C@@H]5C[C@@H]5F)c4c3C#N)C2)CC1 [No. 4] |  |  |  |  |  |  |  |  |  |  |  | 0.006 µg/mL (≈ 0.0136 µM) |  |  | MIC (S. aureus FDA 209P): 0.006 µg/mL (≈ 0.0136 µM); MIC (S. marcescens 10100; 10100): 0.1 µg/mL (≈ 0.226 µM); MIC (E. coli NIHJ): 0.006 µg/mL (≈ 0.0136 µM); MIC (S. epidermidis 56500; 56500): 0.006 µg/mL (≈ 0.0136 µM); MIC (P. aeruginosa 32121; 32121): 0.1 µg/mL (≈ 0.226 µM); MIC (P. aeruginosa 32104; 32104): 0.2 µg/mL (≈ 0.452 µM); MIC (S. maltophilia IID 1275): 0.2 µg/mL (≈ 0.452 µM); MIC (P. Vulgaris 08601): 0.012 µg/mL (≈ 0.0271 µM); MIC (E. faevcalis ATCC 19433): 0.05 µg/mL (≈ 0.113 µM); MIC (K. pneumoniae TYPE I): 0.025 µg/mL (≈ 0.0565 µM); MIC (S. aureus 870307; 870307): 0.025 µg/mL (≈ 0.0565 µM); MIC (S. pyogenes G-36): 0.025 µg/mL (≈ 0.0565 µM); MIC (S. pneumoniae J24; J24): 0.006 µg/mL (≈ 0.0136 µM) |
